Among the data in PubChem BioAssay (NCI) are TGI and GI50 values, retold here.

Molecules are shown by their SMILES. “And” between values parts separate entries of the source, which are not always exact repeats. Equal values may be shown once.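 1) Cells in 96-well plates. 2) Compound, 48 h, 5 concentrations. 3) Linear interpolation between surrounding doses. 4) Unreached endpoint = highest concentration. GI50: concentration for 50% inhibition of growth. At the TGI there is no net growth.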

Some test systems named below: KM20L2 colon; DMS 273 small cell lung; TK-10 renal; EKVX NSCLC; NCI-H460 lung; DMS 114 small cell lung; SNB-78 CNS; SF-539 CNS; NCI/ADR-RES ovarian; HOP-92 NSCLC; MOLT-4 leukemia; OVCAR-5 ovarian.
Common to all, as to test: NCI-60 cell line screen, 48 h

`CC1=C2C(=CO[C@H](C)[C@H]2C)C(=O)C(C(=O)O)=C1O`: the TGI with KM20L2 colon is 71.7 µM; with DMS 273 small cell lung, 123 µM; in the assay with TK-10 renal it was 63.7 µM; in the assay with EKVX NSCLC, 83.6 µM and 63.2 µM; with NCI-H460 lung, > 90.1 µM and 149 µM; in the assay with DMS 114 small cell lung, 30 µM. The TGI in the assay with SNB-78 CNS is 82.8 µM; in the assay with SF-539 CNS, 30.3 µM and 59.2 µM; in the assay with NCI/ADR-RES ovarian it was 79.4 µM and 152 µM; with HOP-92 NSCLC, 72.6 µM and 46.3 µM; in the assay on MOLT-4 leukemia, 40 µM and > 93.6 µM; in the assay on OVCAR-5 ovarian, 73 µM and 128 µM. Moreover, the GI50 with EKVX NSCLC was 28.9 µM; with NCI-H460 lung, 30.1 µM and 73 µM; in the assay on SF-539 CNS, 23.9 µM; in the assay with NCI/ADR-RES ovarian it was 26.9 µM; in the assay on HOP-92 NSCLC, 16.1 µM; with MOLT-4 leukemia, 34.1 µM. Besides, the GI50 in the assay on OVCAR-5 ovarian was 29.5 µM.

For the compound `Cc1cc(=O)[nH]c(NN2C(Cl)C(=O)C2c2ccc([N+](=O)[O-])cc2)n1` (stereo not drawn), the TGI with KM20L2 colon is 56.7 µM; with DMS 273 small cell lung, 22.7 µM; in the assay on TK-10 renal, 29.7 µM; with EKVX NSCLC, 78.8 µM; in the assay on NCI-H460 lung, 18.8 µM; in the assay with DMS 114 small cell lung it was 28.7 µM. Also, the TGI came out at 25 µM in the assay with SNB-78 CNS; 27 µM with SF-539 CNS; 27.3 µM in the assay on HOP-92 NSCLC; 43.2 µM in the assay with MOLT-4 leukemia; 52.8 µM in the assay on OVCAR-5 ovarian.

For `O=C(O)c1ccccc1N=Cc1ccc(N(CCCl)CCCl)cc1`, the TGI with KM20L2 colon, in the assay with DMS 273 small cell lung, with EKVX NSCLC, in the assay on NCI-H460 lung, in the assay on SNB-78 CNS and in the assay with SF-539 CNS was greater than 100 µM in each case. Further, the TGI in the assay on NCI/ADR-RES ovarian, with HOP-92 NSCLC, in the assay on MOLT-4 leukemia and in the assay on OVCAR-5 ovarian was greater than 100 µM throughout.

With `CC1(C)CC2(CC(C)(C)N1O)NC(=O)OC2=O`, the TGI is greater than 100 µM in the assay on KM20L2 colon; greater than 100 µM in the assay on DMS 273 small cell lung; greater than 100 µM with EKVX NSCLC; greater than 31.6 µM in the assay with NCI-H460 lung; greater than 100 µM in the assay on DMS 114 small cell lung; greater than 100 µM in the assay on SNB-78 CNS. For the same compound, the TGI with SF-539 CNS, in the assay with NCI/ADR-RES ovarian, in the assay on HOP-92 NSCLC, in the assay with MOLT-4 leukemia and in the assay with OVCAR-5 ovarian was greater than 100 µM in each case.

Turning to `COc1cccc(N[C@@H]2c3cc4c(cc3C(c3cc(OC)c(O)c(OC)c3)[C@H]3C(=O)OCC32)OCO4)c1` (stereo partly drawn), the TGI in the assay with KM20L2 colon is greater than 29.4 µM; in the assay on DMS 273 small cell lung, 2.44 µM; in the assay on EKVX NSCLC it was 14.9 µM; in the assay on NCI-H460 lung it was 1.6 µM; in the assay with DMS 114 small cell lung, 4.77 µM; in the assay with SNB-78 CNS, greater than 100 µM. Also, the TGI in the assay with SF-539 CNS was 2.52 µM; in the assay on NCI/ADR-RES ovarian it was greater than 70.2 µM; with HOP-92 NSCLC it was 9.33 µM; with MOLT-4 leukemia, 0.164 µM; in the assay with OVCAR-5 ovarian it was greater than 74.2 µM.

With `O=C1c2c(O)cccc2-c2nn(CCNCCO)c3ccc(NCCNCCO)c1c23`, the TGI in the assay on KM20L2 colon turned out to be 9.29 µM; in the assay with DMS 273 small cell lung, 2.54 µM; in the assay on TK-10 renal it was 7.08 µM; with EKVX NSCLC it was 4.8 µM; in the assay on NCI-H460 lung, 0.934 µM; in the assay on DMS 114 small cell lung it was 0.178 µM. For the same compound, the TGI is 5.99 µM with SNB-78 CNS; 1.1 µM in the assay on SF-539 CNS; greater than 100 µM in the assay with NCI/ADR-RES ovarian; 0.609 µM with HOP-92 NSCLC; 0.086 µM with MOLT-4 leukemia; 2.85 µM in the assay on OVCAR-5 ovarian.

Take `CCOP(=O)(O)CN1CCNCCN(CP(=O)(O)OCC)CCNCC1`: the TGI in the assay on TK-10 renal, in the assay with EKVX NSCLC, in the assay on NCI-H460 lung, in the assay on SF-539 CNS, in the assay with NCI/ADR-RES ovarian and in the assay on HOP-92 NSCLC was greater than 100 µM in each case. Besides, the TGI in the assay with MOLT-4 leukemia and in the assay with OVCAR-5 ovarian was greater than 100 µM each time.

Regarding `CN(C)CCCNc1ccc2nnn3c4ccc(O)cc4c(=O)c1c23`, the TGI in the assay with KM20L2 colon was 17.1 µM; in the assay with TK-10 renal, 19.4 µM; in the assay on EKVX NSCLC, 25.3 µM; in the assay on NCI-H460 lung, 14.1 µM; with DMS 114 small cell lung, 23.1 µM; with SNB-78 CNS, 20.7 µM. For the same compound, the TGI with SF-539 CNS was found to be 19.6 µM; with NCI/ADR-RES ovarian, 21.8 µM; with HOP-92 NSCLC it was 20.7 µM; in the assay on MOLT-4 leukemia, 9.3 µM; with OVCAR-5 ovarian, 23.2 µM.

Take `CCOP(=O)(OCC)/C(=C/c1cccs1)CC(C)=O`: the TGI with TK-10 renal, in the assay with EKVX NSCLC, with NCI-H460 lung, with SF-539 CNS, in the assay with NCI/ADR-RES ovarian and in the assay with HOP-92 NSCLC was greater than 100 µM in each case. Besides, the TGI in the assay with MOLT-4 leukemia and in the assay with OVCAR-5 ovarian was greater than 100 µM throughout.

On to `CC(C)(C)OC(=O)NCC(CNC(=O)OC(C)(C)C)c1nc(C(N)=O)cs1`, for which the TGI with TK-10 renal, in the assay with EKVX NSCLC, with NCI-H460 lung, in the assay with SF-539 CNS, with NCI/ADR-RES ovarian and in the assay on HOP-92 NSCLC was greater than 100 µM each time. Further, the TGI with MOLT-4 leukemia and in the assay with OVCAR-5 ovarian was greater than 100 µM throughout.

Regarding `O=C(O)COc1cc(-c2ccccc2)nc2cc(F)ccc12`, the TGI in the assay on TK-10 renal, in the assay on EKVX NSCLC, in the assay on NCI-H460 lung, in the assay with SF-539 CNS, in the assay on NCI/ADR-RES ovarian and with HOP-92 NSCLC was greater than 100 µM throughout. Further, the TGI in the assay with MOLT-4 leukemia and in the assay with OVCAR-5 ovarian was greater than 100 µM throughout.

As to `Cc1ccccc1-c1nc2c(C(=O)NCCN(C)C)cccc2[nH]1`, the TGI in the assay with KM20L2 colon, in the assay with DMS 273 small cell lung, in the assay on EKVX NSCLC, in the assay on NCI-H460 lung, in the assay with DMS 114 small cell lung and in the assay on SNB-78 CNS was greater than 100 µM each time. For the same compound, the TGI in the assay on SF-539 CNS was greater than 100 µM; with NCI/ADR-RES ovarian it was greater than 100 µM; in the assay on HOP-92 NSCLC, 85.1 µM; in the assay on MOLT-4 leukemia it was 75.6 µM; with OVCAR-5 ovarian it was greater than 100 µM.

On to `Nc1ccc(S(=O)(=O)Nc2nc3ccccc3nc2N2CCCCCC2)cc1`, for which the TGI was greater than 100 µM with TK-10 renal; greater than 100 µM in the assay on EKVX NSCLC; 61.2 µM in the assay with NCI-H460 lung; 35.7 µM in the assay on SF-539 CNS; greater than 100 µM with NCI/ADR-RES ovarian; 63.6 µM in the assay with HOP-92 NSCLC. The TGI with MOLT-4 leukemia was 55.3 µM; in the assay with OVCAR-5 ovarian, greater than 100 µM.

As to `CCOC(=O)c1cc2c([N+](=O)[O-])c(N)ccc2s1`, the TGI in the assay with TK-10 renal, with EKVX NSCLC, in the assay with NCI-H460 lung, in the assay on SF-539 CNS, with NCI/ADR-RES ovarian and in the assay with HOP-92 NSCLC was greater than 100 µM in each case. Also, the TGI in the assay on MOLT-4 leukemia and in the assay with OVCAR-5 ovarian was greater than 100 µM each time.

As for `CC(C)C(C/C=C1\CC(CO)(COC(=O)C2CCCCC2)OC1=O)C(C)C` (stereo not drawn), the TGI came out at 41.8 µM in the assay on TK-10 renal; 41.2 µM in the assay with EKVX NSCLC; 76 µM in the assay on NCI-H460 lung; 36.3 µM in the assay with SF-539 CNS; 45.1 µM with NCI/ADR-RES ovarian; 37.5 µM in the assay with HOP-92 NSCLC. Also, the results for the TGI with MOLT-4 leukemia and in the assay with OVCAR-5 ovarian were 39.8 µM and 41.8 µM, respectively.

On to `CC(=O)Nc1ccc(OC/C(N)=N/NC(=O)c2ccncc2)cc1`, for which the TGI in the assay with TK-10 renal, in the assay on EKVX NSCLC, in the assay on NCI-H460 lung, with SF-539 CNS, in the assay with NCI/ADR-RES ovarian and with HOP-92 NSCLC was greater than 100 µM throughout. For the same compound, the TGI in the assay with MOLT-4 leukemia and in the assay with OVCAR-5 ovarian was greater than 100 µM in each case.

As to `O=C(CCN1CCN2c3ccccc3CCC2C1)c1ccc(F)cc1` (stereo not drawn), the TGI in the assay on TK-10 renal was 66 µM; with EKVX NSCLC, 58.5 µM; with NCI-H460 lung it was greater than 100 µM; in the assay with SF-539 CNS it was 39.9 µM; with NCI/ADR-RES ovarian, greater than 100 µM; in the assay with HOP-92 NSCLC, 82.1 µM. Further, the TGI with MOLT-4 leukemia is greater than 100 µM; in the assay with OVCAR-5 ovarian, 62.2 µM.

As for `CN=C(/N=c1\ssc(=NC)n1C)N(C)C`, the TGI in the assay on KM20L2 colon, with DMS 273 small cell lung, in the assay with TK-10 renal, in the assay on EKVX NSCLC, in the assay with NCI-H460 lung and in the assay with DMS 114 small cell lung was greater than 100 µM in each case. The TGI in the assay on SF-539 CNS, with HOP-92 NSCLC, in the assay with MOLT-4 leukemia and with OVCAR-5 ovarian was greater than 100 µM throughout.
